Experimental data published in article PMC12686454 (EMBO Molecular Medicine, 2025).
Structures can show the parent of a compound that is named as a salt.

Assays:
enolase (AbEnolase) = biological target: T1, enolase (AbEnolase) (Acinetobacter baumannii, UniProt A3M5Y1); assay: isothermal titration calorimetry ([…] °C, […] protein, […] ENOblock, single-site model, n = […]); format: binding
T1 construct: gene eno; wild-type enolase gene in pET-30a(+) with an N-terminal His6 tag, purified recombinant
T1 sequence (A3M5Y1 whole entry): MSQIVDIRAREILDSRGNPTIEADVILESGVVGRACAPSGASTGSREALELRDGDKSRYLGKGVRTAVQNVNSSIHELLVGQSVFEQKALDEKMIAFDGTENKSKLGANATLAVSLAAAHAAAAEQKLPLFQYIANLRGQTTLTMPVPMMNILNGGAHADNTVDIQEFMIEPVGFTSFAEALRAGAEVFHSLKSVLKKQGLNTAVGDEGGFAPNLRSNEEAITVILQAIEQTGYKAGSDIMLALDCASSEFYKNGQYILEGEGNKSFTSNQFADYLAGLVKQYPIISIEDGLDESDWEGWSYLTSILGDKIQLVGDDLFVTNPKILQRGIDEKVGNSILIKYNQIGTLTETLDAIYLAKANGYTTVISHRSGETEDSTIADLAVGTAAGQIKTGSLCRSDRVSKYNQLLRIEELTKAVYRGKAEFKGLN

E. coli ATCC 25922 = test system: T2, E. coli ATCC 25922; assay: microbe, parasite or virus in culture; parameters: Bacterial growth inhibition, OD600, dose-response in 384-well plates, AC50; conditions: Escherichia coli, ATCC25922, 24 h
T2 construct: ATCC 25922
Protocol: (§1) EU-OPENSCREEN provided a subset of 2,464 bioactive compounds from the ECBL pilot library (EU-OPENSCREEN: European Chemical Biology Library - Pilot Library) as 10 mM stock solutions in 100% DMSO. The library was screened in duplicate at a final concentration of 100 μM per well (1% DMSO). The antibacterial single-concentration HTS and dose–response susceptibility assays were conducted in 384-well plates, with bacterial cell density measured by optical density at 600 nm (OD600). Compounds were distributed in duplicate on separate 384-well microtiter plates using an Echo 550® acoustic [compound left out] handler (Beckman Coulter™, Indianapolis, IN) and inoculated with bacteria to a final concentration of 10^6 CFU/mL, with a total assay volume of 25.25 μL. Plates were incubated with shaking for 24 h at 37 °C. Bacterial growth was measured by reading the OD600 using an EnVision™ microplate reader (Revvity, Waltham, MA). The activity of the compounds was expressed as the percentage of bacterial growth inhibition, and it was calculated using the following normalization: %Inhibition=100×1−(TfSample−TOSample)−(TfBlank−TOBlank)/(TfGrowth−TOGrowth)−(TfBlank−TOBlank) Where, T0 Sample is the absorbance of the strain growth in the presence of compound measured at time zero, Tf Sample is the absorbance of the strain growth in the presence of compound measured at final time, T0 Growth is the absorbance of the strain growth in the absence of compound measured at time zero, Tf Growth is the absorbance of the strain growth in the absence of compound measured at final time, T0 Blank is the absorbance of the broth medium (blank) measured at time zero, Tf Blank: the absorbance of the broth medium (blank) measured at final time; T0 is Time at 0 h and Tf is Time at 24 h. We developed and validated a high-throughput screen assay using 2464 bioactive compounds from the EU-OPENSCREEN pilot library, dispensed in 384-well plates at 100 μM final concentration, and the A. baumannii Ab ATCC 17978 and E. coli ATCC 25922 strains, as well as their respective MDR strains (Ab186 and MCR1^+) (Fig. 1A). We identified 33 compounds ([…] of the total compounds) with inhibitory activity of ≥70% against at least one or both MDR strains of Ab186 and E. coli MCR1^+. […] This compound was active against the Ab ATCC 17978 and E. coli ATCC 25922 strains, with AC50 values of 23.57 μM and 46.86 μM, respectively (Fig. 1C).

[1] = test system: T3, A. baumannii Ab ATCC 17978; assay: microbe, parasite or virus in culture; parameters: species or system A. baumannii ATCC 17978; Bacterial growth inhibition, OD600, dose-response in 384-well plates, AC50; conditions: Acinetobacter baumannii, ATCC17978, 24 h
T3 construct: ATCC 17978
Protocol: as §1

Structure (SMILES)	Kd (enolase (AbEnolase))	AC50 (E. coli ATCC 25922)	AC50 [1]
NCCOCCOCCNC(=O)Cc1ccc(Nc2nc(NCc3ccc(F)cc3)nc(NCC3CCCCC3)n2)cc1 [ENOblock]	2.9 ± 0.78 µM	–	–
O=[N+]([O-])c1ccc(Sc2cccc[n+]2[O-])c2nonc12 [EOS100077, NSC228155]	–	19.1 µM	32 µM
C[C@H]1CO[C@@H]2Cn3cc(C(=O)NCc4ccc(F)cc4F)c(=O)c(O)c3C(=O)N12 [EOS100194, CABOTEGRAVIR]	–	–	113 µM
COc1cc(/C=C/C(O)=C/C(=O)/C=C/c2ccc(O)cc2)ccc1O [EOS100220, DEMETHOXYCURCUMIN]	–	56.1 µM	51 µM
NC(=S)N/N=C/c1ncccc1N [EOS100248, TRIAPINE]	–	101 µM	65.7 µM
Cc1nc2c(=O)n(C)c(=O)nc-2n(C)n1 [EOS100293, 3-METHYLTOXOFLAVIN]	–	9.33 µM	14.3 µM
Oc1c(Cl)cc(Cl)c(Cl)c1Cc1c(O)c(Cl)cc(Cl)c1Cl [EOS100333, HEXACHLOROPHENE]	–	37.3 µM	4.77 µM
Oc1c(I)cc(I)c2cccnc12 [EOS100343, DIIODOHYDROXYQUINOLINE]	–	55.1 µM	62.8 µM
Cc1c2ccncc2c(C)c2c1[nH]c1ccccc12 [EOS100555, ELLIPTICINE]	–	64 µM	48.9 µM
Cc1ccc2c(Cl)cc(Cl)c(O)c2n1 [EOS100722, CHLORQUINALDOL]	–	20.4 µM	42.2 µM
CC(C)c1cccc(=O)c(O)c1 [EOS100813, HINOKITIOL]	–	48.3 µM	41 µM
CCN1CCN(C(c2ccc(C(F)(F)F)cc2)c2ccc3cccnc3c2O)CC1 (centres unmarked) [EOS100820, ML311]	–	82.9 µM	32.7 µM
Oc1cccc2cccnc12 [EOS100874, OXYQUINOLINE]	–	173 µM	71.9 µM
COc1ccc(Cc2cnc(N)nc2N)cc1OC [EOS100884, DIAVERIDINE]	–	1.26 µM	–
C=C1c2cccc(O)c2C(=O)C2=C(O)[C@]3(O)C(=O)C(C(N)=O)=C(O)[C@@H](N(C)C)[C@@H]3[C@@H](O)[C@H]12 [EOS100925, METHACYCLINE HYDROCHLORIDE]	–	95 µM	–
Oc1c(Cl)cc(Cl)c2cccnc12 [EOS100951, CHLOROXINE]	–	10.1 µM	7.47 µM

Structure (SMILES)	Kd (enolase (AbEnolase))	AC50 (E. coli ATCC 25922)	AC50 [1]
NCCOCCOCCNC(=O)Cc1ccc(Nc2nc(NCc3ccc(F)cc3)nc(NCC3CCCCC3)n2)cc1 [EOS100979, AP-III-A4(ENOBLOCK)]	–	46.9 µM	23.6 µM
Cn1cc(C2=C(c3cn(CCCSC(=N)N)c4ccccc34)C(=O)NC2=O)c2ccccc21 [EOS101001, BISINDOLYLMALEIMIDE IX]	–	109 µM	48.9 µM
CC(C)(Cc1ccc2ccccc2c1)NC[C@@H](O)COc1cccc(Cl)c1C#N [EOS101044, NPS-2143]	–	47.6 µM	27.2 µM
c1ccc2c(c1)[I+]c1ccccc1-2 [EOS101209, DIPHENYLENEIODONIUM]	–	2.02 µM	3.09 µM
CC(C)C[C@H](NC(=O)[C@H](CCc1ccccc1)NC(=O)CN1CCOCC1)C(=O)N[C@@H](Cc1ccccc1)C(=O)N[C@@H](CC(C)C)C(=O)[C@@]1(C)CO1 [EOS101232, CARFILZOMIB]	–	31.4 µM	–
C[C@@H]1CCO[C@H]2Cn3cc(C(=O)NCc4ccc(F)cc4F)c(=O)c(O)c3C(=O)N12 [EOS101330, DOLUTEGRAVIR]	–	–	21.9 µM
CCc1nc(N)nc(N)c1-c1ccc(Cl)cc1 [EOS101458, PYRIMETHAMINE]	–	129 µM	–
COc1cc(NCc2ccc3nc(N)nc(N)c3c2C)cc(OC)c1OC [EOS101467, TRIMETREXATE]	–	1.99 µM	24.1 µM
O=S(=O)(NCCNC/C=C/c1ccc(Br)cc1)c1cccc2cnccc12 [EOS101763, H-89 DIHYDROCHLORIDE]	–	65.9 µM	–
Oc1c(Cl)cc(Cl)cc1Sc1cc(Cl)cc(Cl)c1O [EOS101771, BITHIONOL]	–	42.9 µM	14.6 µM
C/C(=N\N=C(N)N)c1cc(NC(=O)CCCCCCCCC(=O)Nc2cc(/C(C)=N/N=C(N)N)cc(/C(C)=N/N=C(N)N)c2)cc(/C(C)=N/N=C(N)N)c1 [EOS101827, SEMAPIMOD]	–	7.07 µM	23.2 µM
[O-][n+]1ccccc1S [EOS101921, PYRITHIONE]	–	17.8 µM	33.9 µM
CCN1/C(=C/c2ccc3ccccc3[n+]2CC)C=Cc2ccccc21 [EOS102018, DECYNIUM 22]	–	92.9 µM	54.3 µM
CN(C)c1ccc(C(=C2C=CC(=[N+](C)C)C=C2)c2ccc(N(C)C)cc2)cc1 [EOS102093, GENTIAN VIOLET]	–	–	32.7 µM
c1ccc(-c2cccc(-c3ccccn3)n2)nc1 [EOS102213, TERPYRIDINE]	–	52.3 µM	13.1 µM
